Data: article PMC12505967, “Inhibition of the assembly of Plasmodium Hsp70-1 and Hsp40 complex blocks DNA replication by destabilizing ribonucleotide reductase subunit-2” (mBio, 2025)

Key:
PfHsp70-1 + PfYdj1 = biological target: T1, PfHsp70-1 + PfYdj1 (Plasmodium falciparum, UniProt Q8IB24); test: EnzChek phosphate ATPase assay; type: biochemical; details: inhibits PfYdj1-stimulated ATP hydrolysis; 1 and 20 µM compound (21 µM in figure legend); 50 µM ATP, 2 µM each protein, 2 mM MgCl2, pH 7.5, 37°C
T1 construct: gene PF3D7_0818900; both full length, N-terminal His6 tag (pET28a), E. coli, Ni-NTA; tags kept; with HSP40, subfamily A

PfHsp70-1 = biological target: T2, PfHsp70-1 (Plasmodium falciparum, UniProt Q8IB24); type: biochemical; details: basal ATPase without cochaperone; 50 µM ATP, 2 µM protein, 2 mM MgCl2, pH 7.5, 37°C
T2 construct: gene PF3D7_0818900; full length, N-terminal His6 tag (pET28a), E. coli Rosetta (DE3), Ni-NTA; tag kept

[1] = biological target: Recombinant PfHsp70-1 (His6-tagged, purified) (Plasmodium falciparum 3D7) (UniProt Q8IB24); details: scale: µM min^−1 per µM concentration of the enzyme

CC1=C(C(=O)OCc2ccccc2)C(c2ccc(-c3ccccc3)cc2)NC(=O)N1CCCCCC(=O)O (stereo not drawn) [116-9e]
EnzChek phosphate ATPase assay (PfHsp70-1 + PfYdj1): observed a reduced stimulation of PfYdj1-mediated ATP hydrolysis of PfHsp70-1 in a dose-dependent manner

Nc1ncnc2c1ncn2[C@@H]1O[C@H](COP(=O)(O)OP(=O)(O)OP(=O)(O)O)[C@@H](O)[C@H]1O [ATP]
EnzChek phosphate ATPase assay (PfHsp70-1): PfHsp70-1 showed a basal level of ATPase activity

B1: Recombinant PfSis1 (His6-tagged, purified) (natural protein)
chain: MGKDYYSILGVSRDCTTNDLKKAYRKLAMMWHPDKHNDEKSKKEAEEKFKNIAEAYDVLADEEKRKIYDTYGEEGLKGSIPTGGNTYVYSGVDPSELFSRIFGSDGQFSFTSTFDEDFSPFSTFVNMTSRKSRPSTTTNINTNNYNKPATYEVPLSLSLEELYSGCKKKLKITRKRFMGTKSYEDDNYVTIDVKAGWKDGTKITFYGEGDQLSPMAQPGDLVFKVKTKTHDRFLRDANHLIYKCPVPLDKALTGFQFIVKSLDNRDINVRVDDIVTPKSRKIVAKEGMPSSKYPSMKGDLIVEFDIVFPKSLTSEKKKIIRETLANTF
PfSis1-induced rate of ATP hydrolysis of PfHsp70-1 without and with 1 µM and 20 µM 116-9e (0.37 without, 0.322 at 1 µM, 0.087 at 20 µM) [1]: 0.37
